Experimental data from ChEMBL document CHEMBL3301361, “Experimental in vitro DMPK and physicochemical data on a set of publicly disclosed compounds”.
Converted amounts (≈) assume the structure as drawn.

Assays:
in vitro [1] = conditions: human
physchem [2] = conditions: octan-1-ol/water
in vitro [3] = conditions: hepatocytes
in vitro [4] = conditions: SD, HW or BN, rat, plasma
in vitro [5] = conditions: human, plasma, PPB
physchem [6] = conditions: pH 7.4 buffer

SMILES | microsomal CLint (in vitro [1]; microsomes) | logD (physchem [2]; pH 7.4, LogD7.4) | hepatocyte CLint (in vitro [3]) | fraction unbound at 5 h (in vitro [4]) | fraction unbound at 5 h (in vitro [5]) | microsomal CLint (in vitro [1]; liver microsomes) | logD (physchem [2]; pH 7.4) | solubility thermodynamic (physchem [6])
Cc1nc(-c2ccc(OCC(C)C)c(C#N)c2)sc1C(=O)O [FEBUXOSTAT] | < 3 µL/min/mg | 0.94 | 12.7 µL/min/1e6 cells | 0.0052 |  |  |  | 
CNCCC=C1c2ccccc2CCc2ccccc21 [NORTRIPTYLINE] | < 3 µL/min/mg | 1.58 | 144 µL/min/1e6 cells | 0.132 | 0.132 |  |  | 
COc1cc2nnc(C(N)=O)c(Nc3ccc(F)cc3F)c2cc1N1CCN(C)CC1 | 33 µL/min/mg | 2.36 | 16 µL/min/1e6 cells | 0.157 | 0.0948 |  |  | 
O=C(NC1CC1)c1cn(-c2cccc(C#Cc3cccnc3)c2)c2ncccc2c1=O | 7 µL/min/mg |  | 29 µL/min/1e6 cells | 0.0082 |  |  |  | 
CC(C(=O)OC1CC[N+](C)(C)CC1)(c1ccccc1)N1CCC(F)(F)CC1 (stereo not drawn) | 41 µL/min/mg |  | 38 µL/min/1e6 cells | 0.624 |  |  |  | 
CCc1cnn2c(NCc3ccc[n+]([O-])c3)cc(N3CCCC[C@H]3CCO)nc12 [DINACICLIB] | > 150 µL/min/mg |  | > 150 µL/min/1e6 cells | 0.176 | 0.0988 |  |  | 
Cc1cn([C@H]2CCCN([C@@H](CC(C)C)c3ccc(C(=O)O)c(Oc4cccc(Cl)c4)c3)C2)c(=O)[nH]c1=O |  | 0.93 | 9.55 µL/min/1e6 cells | 0.016 | 0.0111 |  |  | 
Cc1ccc(S(=O)(=O)Nc2c(C(=O)NC(C)C)c(C)nn2-c2ccccc2)cc1 |  |  | 51 µL/min/1e6 cells | 0.051 |  | 12 µL/min/mg |  | 
Cc1ccc(S(=O)(=O)Nc2c(C(=O)NC(C)C(C)(C)C)c(C)nn2-c2ccccc2)cc1 (stereo not drawn) |  | 1.21 | 7 µL/min/1e6 cells | 0.0457 | 0.0127 | 31 µL/min/mg |  | 
Cc1nocc1C(=O)Nc1ccc(-c2ccccc2OC(F)(F)F)c(N)n1 |  | 3.7 | 74.1 µL/min/1e6 cells | 0.0366 |  | < 3 µL/min/mg |  | 
O=C(Nc1nc2ccccc2[nH]1)c1ccccc1 |  |  | > 150 µL/min/1e6 cells | 0.126 |  | 64 µL/min/mg |  | 
CCc1c2c(nc3ccc(O)cc13)-c1cc3c(c(=O)n1C2)COC(=O)[C@]3(O)CC [7-ETHYL-10-HYDROXYCAMPTOTHECIN] | 25.1 µL/min/mg | 1.6 | 24 µL/min/1e6 cells | 0.0948 |  |  |  | 
Cc1c(Cl)ccc(OC2CCN(CC3CCN([C@@H](Cc4ccc(F)cc4)C(=O)O)CC3)CC2)c1Cl |  |  | 13.8 µL/min/1e6 cells | 0.232 | 0.0374 | < 3 µL/min/mg |  | 
CCC(CC)NC(=O)c1cnn(-c2ccccn2)c1NS(=O)(=O)c1ccc(C)cc1 |  | 0.27 | 9.95 µL/min/1e6 cells | 0.0499 |  | < 3 µL/min/mg |  | 
COc1ccccc1CN1C(=O)c2ccccc2C1C(=O)NC1CCC(C)CC1 (stereo not drawn) |  |  | > 150 µL/min/1e6 cells | 0.0968 |  | > 150 µL/min/mg | 3.74 | 
Cc1ccc(S(=O)(=O)Nc2c(C(=O)NCc3ccccc3)cnn2-c2ccccc2)cc1 |  | 1.9 | 40 µL/min/1e6 cells | 0.0066 |  | > 150 µL/min/mg |  | 
Cc1cccc(CN2CCC3(CC2)CCN(C(=O)c2ccccc2)CC3)c1 |  |  | 10.2 µL/min/1e6 cells | 0.46 |  | 13.5 µL/min/mg |  | 
O=c1[nH]c2c(O)ccc([C@@H](O)CN[C@H]3CCC[C@@H]3OCc3ccccc3)c2s1 | 26 µL/min/mg |  | 108 µL/min/1e6 cells | 0.179 | 0.069 |  |  | 
CC(C)(CCCCCOCCc1ccccc1)NCCc1ccc(O)c2nc(O)sc12 | 48.7 µL/min/mg | 2.92 | 93 µL/min/1e6 cells | 0.0229 |  |  |  | 

SMILES | microsomal CLint (in vitro [1]; microsomes) | logD (physchem [2]; pH 7.4, LogD7.4) | hepatocyte CLint (in vitro [3]) | fraction unbound at 5 h (in vitro [4]) | fraction unbound at 5 h (in vitro [5]) | microsomal CLint (in vitro [1]; liver microsomes) | logD (physchem [2]; pH 7.4) | solubility thermodynamic (physchem [6])
O=C(c1ccccc1)N1CCC2(CCN(Cc3cccc(Cl)c3)CC2)CC1 | 5 µL/min/mg |  | < 3 µL/min/1e6 cells | 0.166 |  |  |  | 
Cc1nn(-c2ccccc2)c(NS(=O)(=O)c2cccc(CN3CCOCC3)c2)c1C(=O)N[C@@H](C)C(C)(C)C |  |  | 10 µL/min/1e6 cells | 0.16 |  | 9 µL/min/mg |  | 
C[C@H](CO)n1ccc2c(NC(=O)Cc3ccc(Cl)c(C(F)(F)F)c3)cccc2c1=O |  | 3.49 | 29 µL/min/1e6 cells | 0.0391 |  | < 3 µL/min/mg |  | 
C[C@@H]1C[C@H]2[C@@H]3CCC4=CC(=O)C=C[C@]4(C)[C@@]3(F)[C@@H](O)C[C@]2(C)[C@@]1(O)C(=O)CO [DEXAMETHASONE] |  | 1.87 | 31 µL/min/1e6 cells | 0.126 | 0.285 |  |  | 141 µM (≈ 55.5 µg/mL)
COc1ccnc(CCc2nc3ncccc3[nH]2)c1 |  | 1.69 | 18.9 µL/min/1e6 cells | 0.309 |  | < 3 µL/min/mg |  | 
CCOc1ccc(-n2c([C@@H](C)N(Cc3cccnc3)C(=O)Cc3ccc(OC(F)(F)F)cc3)nc3ncccc3c2=O)cc1 |  | 3.7 | 20 µL/min/1e6 cells | 0.0293 | 0.0477 |  |  | 
COCC1=C(C(=O)O)N2C(=O)[C@@H](NC(=O)/C(=N\OC)c3csc(N)n3)[C@H]2SC1 [CEFPODOXIME] |  |  | < 3 µL/min/1e6 cells | 0.454 | 0.465 |  |  | 
COc1cccc2sc(NC(=O)c3ccccc3)nc12 |  |  | 16 µL/min/1e6 cells | 0.0101 |  | 74 µL/min/mg | 3.96 | 
CN(CCCOCCOCCc1ccccc1)CCc1ccc(O)c2nc(O)sc12 |  |  | > 150 µL/min/1e6 cells | 0.24 | 0.0988 | 35 µL/min/mg |  | 
Cc1ccccc1/N=N/c1ccc(NC(=O)c2ccnn2C)c(C)c1 | 4 µL/min/mg |  | 51 µL/min/1e6 cells | 0.0017 |  |  |  | 3.2 µM (≈ 1.07 µg/mL)
O=C(CC12CC3CC(CC(C3)C1)C2)Nc1cccc2c(=O)n(C(CO)CO)ccc12 |  | 2.62 | 19 µL/min/1e6 cells | 0.117 |  | 42 µL/min/mg |  | 
CC1(C)[C@@H]2CC[C@@]1(CS(=O)(=O)N1CCN(c3ccc(C(F)(F)F)cn3)CC1)C(=O)C2 |  |  | 141 µL/min/1e6 cells | 0.0191 | 0.0092 | 51 µL/min/mg |  | 
CSCCC(NC(=O)c1ccccc1)c1nc2ccccc2n1Cc1ccc(C#N)cc1 (stereo not drawn) |  | 4.24 | > 150 µL/min/1e6 cells | 0.0245 |  | > 150 µL/min/mg |  | 
Cc1ccc(C(=O)NC2CC2)cc1-c1ccc(C(=O)NCC2CC2)nc1 | < 3 µL/min/mg | 3.36 | 21 µL/min/1e6 cells | 0.089 |  |  |  | 
CCC(CC)NC(=O)c1cnn(-c2ccccc2)c1NS(=O)(=O)c1ccc(C)cc1 |  | 0.79 | 47.9 µL/min/1e6 cells | 0.0234 |  | 54.5 µL/min/mg |  | 
N#C[C@]1(NC(=O)[C@@H](N)Cc2cccs2)C[C@H]1c1ccccc1 |  | 1.5 | 136 µL/min/1e6 cells | 0.294 |  | 41 µL/min/mg |  | 
CN(C)C(C)(C(=O)OC1CC[N+](C)(C)CC1)c1ccccc1 (stereo not drawn) | < 3 µL/min/mg |  | 16 µL/min/1e6 cells | 0.454 |  |  |  | 
Cc1ccc(S(=O)(=O)Nc2c(C(=O)N[C@@H](C)C(C)(C)C)c(C)nn2C2CCS(=O)(=O)CC2)cc1 | < 3 µL/min/mg | 0.25 | 4 µL/min/1e6 cells | 0.258 |  |  |  | 
